Assay results reported in patent publication US10202381B2, “Histone demethylase inhibitors” (CELGENE QUANTICEL RESEARCH, INC., priority 2014, dated 2019).
Read-outs that look alike come from different tables or passages of the source.

Tests used:
JMJD2C = JMJD2C (Homo sapiens (Human), UniProt Q9H3R0); experiment: In vitro enzyme inhibition assay (JMJD2C TR-FRET); assay type: biochemical; conditions: 0.3 nM JMJD2C, 300 nM H3K9me3-biotin peptide, 2 μM alpha-ketoglutaric acid
Method: This assay determines the ability of a test compound to inhibit JMJD2C demethylase activity. Baculovirus expressed JMJD2C (GenBank Accession #BC143571, AA 2-372) was purchased from BPS Bioscience (Cat#50105).
The ability of test compounds to inhibit the activity of JMJD2C was determined in 384-well plate-format under the following reaction conditions: 0.3 nM JMJD2C, 300 nM H3K9me3-biotin labeled peptide (Anaspec cat #64360), 2 μM alpha-ketoglutaric acid in assay buffer of 50 mM HEPES, pH 7.3, 0.005% Brij35, 0.5 mM TCEP, 0.2 mg/ml BSA, 50 μM sodium L-ascorbate, and 2 μM ammonium iron(II) sulfate. Reaction product was determined quantitatively by TR-FRET after the addition of detection reagent Phycolink Streptavidin-allophycocyanin (Prozyme) and Europium-anti-di-methylated histone H3 lysine 9 (H3K9me2) antibody (PerkinElmer) in the presence of 5 mM EDTA in LANCE detection buffer (PerkinElmer) at a final concentration of 50 nM and 1 nM, respectively.
The assay reaction was initiated by the following: 2 μl of the mixture of 900 nM H3K9me3-biotin labeled peptide and 6 μM alpha-ketoglutaric acid with 2 μl of 11-point serial diluted inhibitor in 3% DMSO were added to each well of the plate, followed by the addition of 2 μl of 0.9 nM JMJD2C to initiate the reaction. The reaction mixture was incubated at room temperature for 30 min, and terminated by the addition of 6 μl of 5 mM EDTA in LANCE detection buffer containing 100 nM Phycolink Streptavidin-allophycocyanin and 2 nM Europium-anti-H3K9me2 antibody. Plates were read by EnVisionMultilabel Reader in TR-FRET mode (excitation at 320 nm, emission at 615 nm and 665 nm) after 1 hr incubation at room temperature. A ratio was calculated (665/615) for each well and fitted to determine inhibition constant (IC50).
The ability of the compounds disclosed herein to inhibit demethylase activity was quantified and the respective IC50 value was determined. Table 3 provides the IC50 values of various compounds disclosed herein.

[1] = tested on: KYSE-150 esophageal carcinoma cell line; experiment: In vitro cell-based assay: BrdU cell proliferation ELISA; parameters: species or system human; conditions: KYSE-150 cells, BrdU incorporation after 168 hr of compound incubation, read-out: Cellular IC50
Method: Cell lines tested include the JMJD2C gene amplified cell line KYSE-150. This is a quantitative ELISA assay measuring DNA incorporation of BrdU during S-phase as a direct readout of cellular proliferation.
Assay Principle: This is a colorimetric immunoassay for the quantification of cell proliferation. Cells treated for 168 hr with test compounds are assayed for their ability to go through S-phase as a measure of their proliferative potential.
Assay Method: The human KYSE-150 (SMAD4 mut, TP53 mut) esophageal carcinoma cell line was seeded at 2,000 cells/well on a 96-well tissue culture treated plate. After an overnight incubation, cells were treated with compound in an 11-point dilution series with final concentrations ranging from 100 μM to 2 nM. Cells were then incubated in the presence of compound for 168 hr. After compound incubation the cells were assayed using a BrdU Cell Proliferation ELISA (Roche). The cells were first incubated with BrdU labeling reagent for 2 hr. After 2 hr, the BrdU incorporated cells were fixed and denatured, probed with an anti-BrdU-Peroxidase antibody for 1.5 hr and washed. Finally, a tetramethylbenzidine peroxidase substrate was added to each well for 15 min. followed by a H2SO4 stop solution. The plate was read at 450 nm, and the raw optical density data was transferred into XLFit (IDBS) for IC50 calculation using the formula: fit=(D+((Vmax*(x^n))/((x^n)+(Km^n)))).
Table 4 provides the cellular IC50 values of various compounds disclosed herein.

JMJD2C, sequence (Q9H3R0 2-372): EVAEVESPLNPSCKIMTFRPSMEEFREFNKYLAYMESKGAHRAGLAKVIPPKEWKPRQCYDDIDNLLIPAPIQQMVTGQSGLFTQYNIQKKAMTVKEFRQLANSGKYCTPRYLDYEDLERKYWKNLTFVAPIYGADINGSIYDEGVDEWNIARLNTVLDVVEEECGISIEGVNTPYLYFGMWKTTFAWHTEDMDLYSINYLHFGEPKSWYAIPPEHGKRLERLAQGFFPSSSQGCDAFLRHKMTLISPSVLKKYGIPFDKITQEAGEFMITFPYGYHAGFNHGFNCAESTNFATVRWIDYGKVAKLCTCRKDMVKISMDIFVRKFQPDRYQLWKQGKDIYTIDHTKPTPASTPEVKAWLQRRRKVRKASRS

| Molecule | IC50 (JMJD2C) | IC50 [1] | IC50 ([1]; Homo sapiens) |
| --- | --- | --- | --- |
| 2-(4-{[4-(4-amino-piperidin-1-yl)-phenyl]-methyl-amino}-phenoxy)-pyrido[3,4-d]pyrimidin-4-ol [Example 23] | 100 to 1000 nM | 1000 to 10000 nM | – |
| CN(c1ccc(Oc2nc(O)c3ccncc3n2)cc1)c1ccc2c(c1)OCC2(C)C [Example 116] | 100 to 1000 nM | – | – |
| CC(C)c1ccc(N(c2ccc(Oc3nc(O)c4ccncc4n3)cc2)C2CCOCC2)cc1 [Example 118, 2-(4-((4-isopropylphenyl)(tetrahydro-2H-pyran-4-yl)amino)phenoxy)pyrido[3,4-d]pyrimidin-4-ol] | – | – | 1000 to 10000 nM |
| CC(C)c1ccc(N(c2ccc(Oc3nc(O)c4ccncc4n3)cc2)C2CCN(C)CC2)cc1 [Example 119, 2-(4-((4-isopropylphenyl)(1-methylpiperidin-4-yl)amino)phenoxy)pyrido[3,4-d]pyrimidin-4-ol] | ≤ 100 nM | – | > 10000 nM |
| CCCN(c1ccc(Oc2nc(O)c3ccncc3n2)cc1)c1ccc(C(C)C)cc1 [Example 120, 2-(4-((4-isopropylphenyl)(propyl)amino)phenoxy)pyrido[3,4-d]pyrimidin-4-ol] | 100 to 1000 nM | – | 1000 to 10000 nM |
| CC(C)c1ccc(N(c2ccc(Oc3nc(O)c4ccncc4n3)cc2)C(C)C)cc1 [Example 122] | 1000 to 10000 nM | – | – |
| CC(C)CN(c1ccc(Oc2nc(O)c3ccncc3n2)cc1)c1ccc(C(C)C)cc1 [Example 123, 2-(4-(isobutyl(4-isopropylphenyl)amino)phenoxy)pyrido[3,4-d]pyrimidin-4-ol] | 1000 to 10000 nM | – | – |
| CC(C)c1ccc(N(c2ccc(Oc3nc(O)c4ccncc4n3)cc2)C2CCCC2)cc1 [Example 125, 2-(4-(cyclopentyl(4-isopropylphenyl)amino)phenoxy)pyrido[3,4-d]pyrimidin-4-ol] | 1000 to 10000 nM | – | ≤ 100 nM |
| Cc1cc(Oc2nc(O)c3ccncc3n2)ccc1N(C)c1ccc(C(C)C)cc1 [Example 131, 2-(4-((4-isopropylphenyl)(methyl)amino)-3-methylphenoxy)pyrido[3,4-d]pyrimidin-4-ol] | 100 to 1000 nM | – | > 10000 nM |
| CC(C)N1CCN(c2cccc(N(C)c3ccc(Oc4nc(O)c5ccncc5n4)cc3)c2)CC1 [Example 132, 2-(4-((3-(4-isopropylpiperazin-1-yl)phenyl)(methyl)amino)phenoxy)pyrido[3,4-d]pyrimidin-4-ol] | – | – | 100 to 1000 nM |
| CCc1ccc(N(C)c2ccc(Oc3nc(O)c4ccncc4n3)cc2)cc1OC [Example 135, 2-(4-((4-ethyl-3-methoxyphenyl)(methyl)amino)phenoxy)pyrido[3,4-d]pyrimidin-4-ol] | 100 to 1000 nM | – | 1000 to 10000 nM |
| CN1CC=C(c2cccc(N(C)c3ccc(Oc4nc(O)c5ccncc5n4)cc3)c2)CC1 [Example 139, 2-(4-(methyl(3-(1-methyl-1,2,3,6-tetrahydropyridin-4-yl)phenyl)amino)phenoxy)pyrido[3,4-d]pyrimidin-4-ol] | ≤ 100 nM | – | – |
| CC(C)c1ccc(N(C)c2ccc(Oc3nc(O)c4ccncc4n3)cc2C(F)(F)F)cc1 [Example 143, 2-(4-((4-isopropylphenyl)(methyl)amino)-3-(trifluoromethyl)phenoxy)pyrido[3,4-d]pyrimidin-4-ol] | 1000 to 10000 nM | – | – |
| Cc1cc(Oc2nc(O)c3ccncc3n2)ccc1N(C)c1ccc(C(C)(C)C)cc1 [Example 148, 2-(4-((4-(tert-butyl)phenyl)(methyl)amino)-3-methylphenoxy)pyrido[3,4-d]pyrimidin-4-ol] | 100 to 1000 nM | – | – |
| CCCc1ccc(N(C)c2ccc(Oc3nc(O)c4ccncc4n3)cc2C)cc1 [Example 149, 2-(3-methyl-4-(methyl(4-propylphenyl)amino)phenoxy)pyrido[3,4-d]pyrimidin-4-ol] | 100 to 1000 nM | – | – |

Results, then the molecule that gave them:

| IC50 (JMJD2C) | IC50 [1] | IC50 ([1]; Homo sapiens) | Molecule |
| --- | --- | --- | --- |
| ≤ 100 nM | – | 1000 to 10000 nM | CC(C)c1ccc(Nc2ccc(Oc3nc(O)c4ccncc4n3)cc2)cc1 [Example 121, 2-(4-((4-isopropylphenyl)amino)phenoxy)pyrido[3,4-d]pyrimidin-4-ol] |
| ≤ 100 nM | – | 1000 to 10000 nM | CC(C)c1ccc(N(c2ccc(Oc3nc(O)c4ccncc4n3)cc2)C2CCCN(C)C2)cc1 (centres unmarked) [Example 124, 2-(4-((4-isopropylphenyl)(1-methylpiperidin-3-yl)amino)phenoxy)pyrido[3,4-d]pyrimidin-4-ol] |
| ≤ 100 nM | – | ≤ 100 nM | CC(C)c1ccc(N(c2ccc(Oc3nc(O)c4ccncc4n3)cc2)C2CCNC2)cc1 (centres unmarked) [Example 126, 2-(4-((4-isopropylphenyl)(pyrrolidin-3-yl)amino)phenoxy)pyrido[3,4-d]pyrimidin-4-ol] |
| ≤ 100 nM | – | > 10000 nM | CC(C)c1ccc(N(c2ccc(Oc3nc(O)c4ccncc4n3)cc2)C2CCN(C)C2)cc1 (centres unmarked) [Example 127, 2-(4-((4-isopropylphenyl)(1-methylpyrrolidin-3-yl)amino)phenoxy)pyrido[3,4-d]pyrimidin-4-ol] |
| ≤ 100 nM | – | ≤ 100 nM | Cc1ccc2c(c1)CCN2c1ccc(Oc2nc(O)c3ccncc3n2)cc1 [Example 128] |
| ≤ 100 nM | – | 1000 to 10000 nM | Cc1ccc2c(ccn2-c2ccc(Oc3nc(O)c4ccncc4n3)cc2)c1 [Example 129, 2-(4-(5-methyl-1H-indol-1-yl)phenoxy)pyrido[3,4-d]pyrimidin-4-ol] |
| ≤ 100 nM | – | > 10000 nM | CC(C)c1ccc(N(c2ccc(Oc3nc(O)c4ccncc4n3)cc2)C2CCCNC2)cc1 (centres unmarked) [Example 130, 2-(4-((4-isopropylphenyl)(piperidin-3-yl)amino)phenoxy)pyrido[3,4-d]pyrimidin-4-ol] |
| ≤ 100 nM | – | 1000 to 10000 nM | CN1CCN(c2cccc(N(C)c3ccc(Oc4nc(O)c5ccncc5n4)cc3C(F)(F)F)c2)CC1 [Example 133, 2-(4-(methyl(3-(4-methylpiperazin-1-yl)phenyl)amino)-3-(trifluoromethyl)phenoxy)pyrido[3,4-d]pyrimidin-4-ol] |
| ≤ 100 nM | – | 1000 to 10000 nM | Cc1cc(Oc2nc(O)c3ccncc3n2)ccc1N(C)c1cccc(N2CCN(C)CC2)c1 [Example 134, 2-(3-methyl-4-(methyl(3-(4-methyl-piperazin-1-yl)phenyl)amino)phenoxy)pyrido[3,4-d]pyrimidin-4-ol] |
| ≤ 100 nM | – | – | CN1CCN(c2cccc(N(CC3CC3)c3ccc(Oc4nc(O)c5ccncc5n4)cc3)c2)CC1 [Example 142, 2-(4-((cyclopropylmethyl)(3-(4-methylpiperazin-1-yl)phenyl)amino)phenoxy)pyrido[3,4-d]pyrimidin-4-ol] |
| ≤ 100 nM | – | – | CCc1ccc(N(C)c2ccc(Oc3nc(O)c4ccncc4n3)cc2C)cc1 [Example 144, 2-(4-((4-ethylphenyl)(methyl)amino)-3-methylphenoxy)pyrido[3,4-d]pyrimidin-4-ol] |
| ≤ 100 nM | – | – | COc1ccc(N2CCN(C)CC2)cc1N(C)c1ccc(Oc2nc(O)c3ccncc3n2)cc1 [Example 145, 2-(4-((2-methoxy-5-(4-methylpiperazin-1-yl)phenyl)(methyl)amino)phenoxy)pyrido[3,4-d]pyrimidin-4-ol] |
| ≤ 100 nM | – | – | CCOc1ccc(N2CCN(C)CC2)cc1N(C)c1ccc(Oc2nc(O)c3ccncc3n2)cc1 [Example 146, 2-(4-((2-ethoxy-5-(4-methylpiperazin-1-yl)phenyl)(methyl)amino)phenoxy)pyrido[3,4-d]pyrimidin-4-ol] |
| ≤ 100 nM | – | – | Cc1ccc(N2CCN(C)CC2)cc1N(C)c1ccc(Oc2nc(O)c3ccncc3n2)cc1 [Example 147, 2-(4-(methyl(2-methyl-5-(4-methylpiperazin-1-yl)phenyl)amino)phenoxy)pyrido[3,4-d]pyrimidin-4-ol] |
